Structures can show the parent of a compound that is named as a salt. Where two headings read alike, the source gives them in different places.
Biological target: T1, His6-AspH315–758 (human aspartate/asparagine-β-hydroxylase, AspH) (Homo sapiens, UniProt Q12797)
T1 construct: N-Terminally His6-tagged human AspH315–758 (His6-AspH315–758) was produced in E. coli BL21 (DE3) cells; made in house; host or cells: E. coli BL21 (DE3), pET-28a(+) vector
T1 sequence (Q12797 315-758): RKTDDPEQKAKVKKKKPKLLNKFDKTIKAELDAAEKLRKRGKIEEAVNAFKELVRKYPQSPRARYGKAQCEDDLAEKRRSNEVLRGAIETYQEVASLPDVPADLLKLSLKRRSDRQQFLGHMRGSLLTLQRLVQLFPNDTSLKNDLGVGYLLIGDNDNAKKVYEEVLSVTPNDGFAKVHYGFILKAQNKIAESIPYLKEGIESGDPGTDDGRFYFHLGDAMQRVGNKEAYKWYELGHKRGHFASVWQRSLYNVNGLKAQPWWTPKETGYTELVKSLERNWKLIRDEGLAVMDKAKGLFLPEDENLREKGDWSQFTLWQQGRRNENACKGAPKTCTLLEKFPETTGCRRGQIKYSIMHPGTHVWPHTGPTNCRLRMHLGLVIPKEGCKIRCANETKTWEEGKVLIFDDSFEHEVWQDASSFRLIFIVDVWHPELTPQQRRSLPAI
Test: SPE-MS AspH inhibition assay (LOPAC screen at fixed 20 μM and IC50 dose-response), hydroxylation of cyclic peptide hFX-CP101–119
Type: biochemical
Conditions: for Plate 5 (% inhibition) / Plate 5 (% conversion): plate 5 (Pfitzer), test compounds at fixed 20 μM; for Plate 5 (% conversion): mean conversion DMSO 32.88

[1] = LOPAC compound at fixed 20 uM, plate 1, normalised to DMSO and 2,4-PDCA controls
[2] = LOPAC compound at fixed 20 uM, substrate conversion, plate 1
[3] = LOPAC Plate 4, compound at 20 uM, substrate conversion
[4] = LOPAC Plate 4, compound at 20 uM

Compound | Plate 1 (% inhibition) [1] | Plate 1 (% conversion) [2] | further results
C[N+]1(C)[C@@H]2CC[C@H]1C[C@@H](OC(=O)C(CO)c1ccccc1)C2 (stereo partly drawn) [Atropine methyl nitrate] | 2.78% | 34.94% | 
CN1[C@@H]2CC[C@H]1C[C@@H](OC(=O)C(CO)c1ccccc1)C2 (stereo partly drawn) [Atropine sulfate] |  |  | Plate 1 (% inhibition): 2.77%
CC(=O)OC[C@H]1O[C@@H]([S-])[C@H](OC(C)=O)[C@@H](OC(C)=O)[C@@H]1OC(C)=O.CCP(CC)CC.[Au+] [Auranofin] |  |  | % conversion: 18.61%; % inhibition (20 µM): 52.32%
CC(C)=CCC/C(C)=C/COc1ccc2ccc(=O)oc2c1 [Auraptene] |  |  | % conversion [3]: 37.42%
O=C(O)C1=CC(=C(c2ccc(O)c(C(=O)O)c2)c2ccc(O)c(C(=O)O)c2)C=CC1=O [Aurintricarboxylic acid, reference compound] | 103.81% | 1.01% | inhibition at 20 µM (AspH activity, fixed compound concentration 20 μM, initial LOPAC screen, 0.5%v/v DMSO, read-out: Inhibition at 20 µM [%]): 104%
OC[C@H]1O[C@H]([S-])[C@H](O)[C@@H](O)[C@@H]1O.[Au+] [Aurothioglucose] |  |  | Plate 3 (% conversion): 23.41%
CC(C)c1cc(C(C)C)c(CC(=O)NS(=O)(=O)Oc2c(C(C)C)cccc2C(C)C)c(C(C)C)c1 [Avasimibe] |  |  | Plate 5 (% inhibition): 73.14%; Plate 5 (% conversion): 11.42%
CCCCCCCCCCCCCCCCCCN(CCCCCCCCCCCCCCCCCC)CCCN(CCO)CCO [Avridine] |  |  | % conversion [3]: 28.90%; Plate 5 (% inhibition): 10.21%; Plate 5 (% conversion): 32.84%
CNC(=O)c1ccccc1Sc1ccc2c(/C=C/c3ccccn3)n[nH]c2c1 [Axitinib] |  |  | Plate 5 (% inhibition): -7.77%; Plate 5 (% conversion): 38.96%
Cn1cnc([N+](=O)[O-])c1Sc1ncnc2nc[nH]c12 [Azathioprine] | -17.98% | 41.91% | 
O=C(O)CCCCCCCC(=O)O [Azelaic acid] | 11.13% | 32.14% | 
CC[C@H]1OC(=O)[C@H](C)[C@@H](O[C@H]2C[C@@](C)(OC)[C@@H](O)[C@H](C)O2)[C@H](C)[C@@H](O[C@@H]2O[C@H](C)C[C@H](N(C)C)[C@H]2O)[C@](C)(O)C[C@@H](C)CN(C)[C@H](C)[C@@H](O)[C@]1(C)O [Azithromycin dihydrate] | -13.45% | 40.39% | 
CC[C@H]1OC(=O)[C@H](C)[C@@H](O[C@H]2C[C@@](C)(OC)[C@@H](O)[C@H](C)O2)[C@H](C)[C@@H](O[C@@H]2O[C@H](C)C[C@H](N(C)C)[C@H]2O)[C@](C)(O)C[C@@H](C)CN(C)[C@H](C)[C@@H](O)[C@]1(C)O [Azithromycin] |  |  | Plate 5 (% inhibition): -3.13%; Plate 5 (% conversion): 37.38%
CCN1CCc2nc(N)oc2CC1.Cl.Cl [B-HT 933 dihydrochloride] | -9.80% | 39.16% | 
COc1ccc(-c2cc3nccn3c(Nc3ncccc3C(N)=O)n2)cc1OC.Cl.O [BAY 61-3606 hydrochloride hydrate] |  |  | % conversion [3]: 33.04%
Nc1ccc(-c2ccc3ccccc3n2)cc1 [BF-170 hydrochloride] |  |  | % inhibition [4]: -2.46%; % conversion [3]: 37.31%
CC(=O)O[C@H]1Cc2ccccc2N(C(N)=O)c2ccccc21 [BIA 2-093] |  |  | % conversion [3]: 30.46%
COc1cc2nc(N3CCCN(C)CC3)nc(NC3CCN(Cc4ccccc4)CC3)c2cc1OC [BIX 01294 trihydrochloride hydrate] |  |  | % inhibition [4]: -9.31%; % conversion [3]: 39.65%
C[C@H](c1ccc(F)cc1CCCC(=O)O)N(c1cc(F)ccc1F)S(=O)(=O)c1ccc(Cl)cc1 [BMS-299897] |  |  | % inhibition [4]: -0.66%; % conversion [3]: 36.70%
COc1ccccc1N1CCN(CCN2C(=O)CC3(CCCC3)CC2=O)CC1.Cl.Cl [BMY 7378 dihydrochloride] | -11.73% | 39.81% | 
COc1ccccc1N1CCN(CCCCNC(=O)c2ccc3ccccc3c2)CC1 [BP 897] | -9.00% | 38.89% | 
C[C@H](Cc1ccc(OCC(=O)[O-])cc1)NC[C@H](O)c1cccc(Cl)c1.[Na+] [BRL 37344 sodium] | 4.03% | 34.52% | 

Compound | Plate 1 (% inhibition) [1] | Plate 1 (% conversion) [2] | further results
Cc1ccc([N+](=O)[O-])cc1S(=O)(=O)N(C)C [BRL 50481] |  |  | Plate 1 (% conversion): 38.84%; Plate 1 (% inhibition): -8.84%
CN1CCC(c2c[nH]c3ccc(O)cc23)CC1.O=C(O)/C=C\C(=O)O [BRL 54443 maleate] |  |  | Plate 1 (% conversion): 33.54%; Plate 1 (% inhibition): 6.94%
Cl.c1ccc2sc(C3(N4CCCCC4)CCCCC3)cc2c1 [BTCP hydrochloride] |  |  | Plate 1 (% conversion): 41.13%; Plate 1 (% inhibition): -15.64%
N#Cc1cc([N+](=O)[O-])c2sc(C(N)=O)[n+]([O-])c2c1 [BTO-1] | -2.18% | 36.60% | 
Cl.c1ccc2nc(C3=NCCN3)ccc2c1 [BU224 hydrochloride] | -5.25% | 37.63% | 
C=CC[N+](C)(C)c1ccc(CCC(=O)CCc2ccc([N+](C)(C)CC=C)cc2)cc1.[Br-].[Br-] [BW 284c51] |  |  | Plate 1 (% conversion): 38.38%; Plate 1 (% inhibition): -7.47%
CC(N)Cc1c[nH]c2ccc(OCc3cccs3)cc12 (stereo not drawn) [BW 723C86] |  |  | Plate 3 (% conversion): 36.52%
CC(/C=C/c1cccc(Oc2ccc(F)cc2)c1)N(O)C(N)=O (stereo not drawn) [BWB70C] | -3.19% | 36.94% | 
Cc1ccc(S(=O)(=O)/C=C/C#N)cc1 [Bay 11-7082] |  |  | % conversion [3]: 24.61%
CC(C)(C)c1ccc(S(=O)(=O)/C=C/C#N)cc1 [Bay 11-7085] |  |  | Plate 1 (% conversion): 32.72%; Plate 1 (% inhibition): 9.38%
C[C@H]1C[C@H]2[C@@H]3CCC4=CC(=O)C=C[C@]4(C)[C@@]3(Cl)[C@@H](O)C[C@]2(C)[C@@]1(O)C(=O)CO [Beclomethasone] | -10.42% | 39.37% | 
c1ccc2cc(-c3ncc[nH]3)ccc2c1 [Benazoline oxalate] | 77.21% | 9.94% | 
Cl.Cn1c(CCCC(=O)O)nc2cc(N(CCCl)CCCl)ccc21 [Bendamustine hydrochloride] |  |  | Plate 2 (% conversion): 39.38%; Plate 2 (% inhibition) (20 µM): -10.22%
COc1cccc(OC)c1OCCNCC1CSc2ccccc2O1 (stereo not drawn) [Benoxathian hydrochloride] | -17.92% | 41.89% | 
NC(=O)c1ccccc1 [Benzamide] | -4.66% | 37.44% | 
N=C(N)c1ccccc1 [Benzamidine hydrochloride] | -1.42% | 36.35% | 
NC(=NCc1ccccc1)NC(=O)c1nc(Cl)c(N)nc1N [Benzamil hydrochloride] | 8.35% | 33.07% | 
CN1[C@@H]2CC[C@H]1C[C@@H](OC(c1ccccc1)c1ccccc1)C2 [Benztropine mesylate] | -9.74% | 39.14% | 
CC(C)COCC(CN(Cc1ccccc1)c1ccccc1)N1CCCC1 (stereo not drawn) [Bepridil hydrochloride] | 94.47% | 4.14% | 
CC(C)C[C@H](NC(=O)[C@@H](O)[C@H](N)Cc1ccccc1)C(=O)O [Bestatin hydrochloride] | -4.72% | 37.46% | 
C[N+](C)(C)CC=O [Betaine aldehyde chloride] | -3.10% | 36.91% | 
